Literature values as cited in patent publication US5733881A, “Opioid peptide antagonists” (Astra AB, priority 1994, dated 1998).

Test system: μ opioid receptors
Settings: GPI assay

Oc1ccc2c3c1O[C@H]1c4[nH]c5ccccc5c4C[C@@]4(O)[C@@H](C2)N(CC2CC2)CC[C@]314 [naltrindole]
μ antagonist Ke: 29 nM
